Test results: patent publication US8507472B2 (priority 2010, dated 2013)

Assays:
[1] = log P determination by HPLC retention times (alkan-2-one calibration); conditions: preparation examples in the text
Pyrenophora teres = Pyrenophora teres test (barley)/protective; format: in vivo; conditions: in vivo
Description: Solvent: 49 parts by weight of N,N-dimethylformamide
Emulsifier: 1 part by weight of alkylaryl polyglycol ether
To produce a suitable preparation of active compounds, 1 part by weight of active compound is mixed with the stated amounts of solvent and emulsifier, and the concentrate is diluted with water to the desired concentration.
To test for protective activity, young barley plants are sprayed with the active compound preparation at the stated application rate. 1 day after the treatment, the plants are inoculated with an aqueous spore suspension of Pyrenophora teres and then remain at 100% rel. atmospheric humidity and 22° C. for 48 h. The plants are then placed in a greenhouse at 80% rel. atmospheric humidity and a temperature of 20° C.
Evaluation is carried out 7-9 days after the inoculation. 0% means an efficacy which corresponds to that of the control, whereas an efficacy of 100% means that no infection is observed.

SMILES	chromatographic logP ([1]; log P(HCOOH), HCOOH)	also measured
CC1CCN(N=C(c2ccccc2)c2ccccc2)C1=O (stereo not drawn) [XXV-3, 1-[(Diphenylmethylene)amino]-3-methylpyrrolidin-2-one]	2.62	
FC(F)(F)c1ccc(-c2cc3n(n2)CCC3)cc1 [VII-9, 2-[4-(Trifluoromethyl)phenyl]-5,6-dihydro-4H-pyrrolo[1,2-b]pyrazole]	3.2	
CC(C)(C)OC1Cc2c([O-])on[n+]2C1 (stereo not drawn) [III-4, 5-tert-Butoxy-5,6-dihydro-4H-pyrrolo[1,2-c][1,2,3]oxadiazol-7-ium 3-olate]	1.34	
Ic1c(-c2ccsc2)nn2c1CCC2 [VIII-8, 2-[3-Thienyl]-3-iodo-5,6-dihydro-4H-pyrrolo[1,2-b]pyrazole]	2.97	
c1cc(-c2cc3n(n2)CCC3)cs1 [VII-13, 2-[3-Thienyl]-5,6-dihydro-4H-pyrrolo[1,2-b]pyrazole]	2.01	
FC(F)(F)c1ccc(-c2nn3c(c2I)CCC3)cc1 [VIII-10, 2-[4-(Trifluoromethyl)phenyl]-3-iodo-5,6-dihydro-4H-pyrrolo[1,2-b]pyrazole]	4.13	
[O-]c1on[n+]2c1CCCCC2 [III-1, 5,6,7,8-Tetrahydro-4H-[1,2,3]oxadiazolo[3,4-a]azepin-9-ium 3-olate]	0.6	
CC(Cl)CCC(=O)NN=C(c1ccccc1)c1ccccc1 (stereo not drawn) [XXV-1, 4-Chloro-N′-(diphenylmethylene)pentane hydrazide]		log P(HCOOH) ([1]; HCOOH): 3.76
CCOC(=O)CC(=NN1CCCC1=O)c1ccccc1F [XXVIII-4, Ethyl 3-(2-fluorophenyl)-3-[(2-oxopyrrolidin-1-yl)imino]propanoate]	1.97	
COc1ccc(C#Cc2ccncc2)cc1 [II-3, 4-{[4-(Methoxy)phenyl]ethynyl}pyridine]		chromatographic logP ([1]; pH 7, log P(pH7), pH7): 2.68
Brc1c(-c2ccccc2)nn2c1CSCC2 [VIII-18, 3-Bromo-2-phenyl-6,7-dihydro-4H-pyrazolo[5,1-c][1,4]thiazine]	3.42	
Nc1cc(-c2c(-c3ccc(F)cc3)nn3c2CCOC3)ccn1 [Example 103]		efficacy in % (Pyrenophora teres): 90%
CC(CCC(=O)NN=C(c1ccccc1)c1ccccc1)OS(C)(=O)=O (stereo not drawn) [5-[2-(diphenylmethylene)hydrazino]-5-oxopentan-2-yl methanesulphonate]	2.82	
Fc1ccccc1-c1nn2c(c1Br)CCC2 [VIII-22, 3-Bromo-2-(2-fluorophenyl)-5,6-dihydro-4H-pyrrolo[1,2-b]pyrazole]	2.81	
Clc1ccc(C#Cc2ccncc2)cc1 [II-5, 4-{[4-Chlorophenyl]ethynyl}pyridine]	2.43	
Cc1ccc(-c2cc3n(n2)CCC3)cc1 [VII-8, 2-[4-Methylphenyl]-5,6-dihydro-4H-pyrrolo[1,2-b]pyrazole]	2.64	
CC1CCc2c(Br)c(-c3ccc(F)cc3)nn21 (stereo not drawn) [VIII-20, 2-(4-Fluorophenyl)-3-bromo-6-methyl-5,6-dihydro-4H-pyrrolo[1,2-b]pyrazole]	3.77	
Cc1ccc(-c2nn3c(c2I)CCC3)cc1 [VIII-7, 2-[4-Methylphenyl]-3-iodo-5,6-dihydro-4H-pyrrolo[1,2-b]pyrazole]	3.54	
FC(F)(F)c1ccc(C#Cc2ccncc2)cc1 [II-1, 4-{[4-(Trifluoromethyl)phenyl]ethynyl}pyridine]	2.86	
Fc1cccc(-c2nn3c(c2I)CCC3)c1 [VIII-11, 2-[3-Fluorophenyl]-3-iodo-5,6-dihydro-4H-pyrrolo[1,2-b]pyrazole]	3.32	
Fc1cccc(-c2cc3n(n2)CCC3)c1 [VII-10, 2-[3-Fluorophenyl]-5,6-dihydro-4H-pyrrolo[1,2-b]pyrazole]	2.46	
CC(C)CNc1cc(-c2c(-c3ccccc3)nn3c2CCC3)ccn1 [Example 72]		efficacy in % (Pyrenophora teres): 80%
CC(C)CC(=O)Nc1cc(-c2c(-c3ccc(F)cc3)nn3c2CCOC3(C)C)ccn1 [Example 105]		efficacy in % (Pyrenophora teres): 95%
CC(C)CNc1cc(-c2c(-c3cccc(F)c3)nn3c2CCC3)ccn1 [Example 73]		efficacy in % (Pyrenophora teres): 70%
